pIC50: −log10 of the molar value.
Key:
SN12C = experiment: NCI-60 cytotoxicity, SN12C; assay type: cell-based, human; conditions: SN12C (Renal), 72 h
Experimental: (§1) Briefly, human NCI-60 cancer cell lines were counted with a Vi-CELL Cell Viability Analyzer (Beckman Coulter), resuspended in RPMI-1640 medium containing 10% FBS and 1% penicillin/streptomycin and dispensed in wells of 96-well microplates (3000 cells per well for solid tumor and 5000 per well for blood tumor cells) using an epMotion 5075 liquid handler (Eppendorf) under a sterile condition, followed by incubation overnight at 37° C. in 5% (v/v) CO2. Cells were exposed to compounds in a dose-dependent manner for 72 h. An MTS dye (20 uL per well) was added to each well. Cell viability was determined by tetrazolium conversion to its […] dye. […] Each experiment was performed in duplicate. […] H9 cells are more sensitive to drugs, therefore instead of 72 hours, we choose 48 hour the incubation time for H9 cells.
(§2) IC50 values were determined using […] software (Biosoft).

MDA-MB-468 = experiment: NCI-60 cytotoxicity, MDA-MB-468; assay type: cell-based, human; conditions: MDA-MB-468 (Breast), 72 h
Experimental: as §1, §2

HCT-116 = experiment: NCI-60 cytotoxicity, HCT-116; assay type: cell-based, human; conditions: HCT-116 (Colon), 72 h
Experimental: as §1, §2

PI3K p110γ = PI3K p110γ (Homo sapiens, UniProt P48736); conditions: summarized from Selleck and Apexbio; read-out: IC50 of PI3K Isoforms, p110γ; cited from earlier work
A498 = experiment: NCI-60 cytotoxicity, A498; assay type: cell-based, human; conditions: A498 (Renal), 72 h
Experimental: as §1, §2

NCI-H460 = experiment: NCI-60 cytotoxicity, NCI-H460; assay type: cell-based, human; conditions: NCI-H460 (Lung), 72 h
Experimental: as §1, §2

SK-MEL-5 = experiment: NCI-60 cytotoxicity, SK-MEL-5; assay type: cell-based, human; conditions: SK-MEL-5 (Melanoma), 72 h
Experimental: as §1, §2

NCI/ADR-RES = experiment: NCI-60 cytotoxicity, NCI/ADR-RES; assay type: cell-based, human; conditions: NCI/ADR-RES (Ovarian), 72 h
Experimental: as §1, §2

NCI-H552 = experiment: NCI-60 cytotoxicity, NCI-H552; assay type: cell-based, human; conditions: NCI-H552 (Lung), 72 h
Experimental: as §1, §2

Hut78 cells = experiment: CellTiterGlo cell viability, Hut78; assay type: cell-based, human
Experimental: Viability assays using trypan blue exclusion and CellTiterGlo Cell Viability Assay: Cell viability was calculated by diluting cell suspensions 1:1 in 0.4% TRYPAN BLUE solution (Sigma, St. Louis, Mo.) and counting the number of viable cells using a TC20™ automated cell counter (Bio-Rad, Irvine, Calif.) that automatically excludes the number of non-viable cells stained with trypan blue per total cells. […] All data points are an average of triplicate experiments.
(§3) Absorbance was monitored at 490 nm using an automated BMG PHERAstar plate reader (BMG Labtech). […] All experiments are repeated in three independent experiments and data represented are the average of triplicate experiments.

SK-MEL-28 = experiment: NCI-60 cytotoxicity, SK-MEL-28; assay type: cell-based, human; conditions: SK-MEL-28 (Melanoma), 72 h
Experimental: as §1, §2

SNB-75 = experiment: NCI-60 cytotoxicity, SNB-75; assay type: cell-based, human; conditions: SNB-75 (CNS), 72 h
Experimental: as §1, §2

BT-S49 = experiment: NCI-60 cytotoxicity, BT-S49; assay type: cell-based, human; conditions: BT-S49 (Breast), 72 h
Experimental: as §1, §2

T-47D = experiment: NCI-60 cytotoxicity, T-47D; assay type: cell-based, human; conditions: T-47D (Breast), 72 h
Experimental: as §1, §2

SF-539 = experiment: NCI-60 cytotoxicity, SF-539; assay type: cell-based, human; conditions: SF-539 (CNS), 72 h
Experimental: as §1, §2

OVCAR-5 = experiment: NCI-60 cytotoxicity, OVCAR-5; assay type: cell-based, human; conditions: OVCAR-5 (Ovarian), 72 h
Experimental: as §1, §2

MCF7 = experiment: NCI-60 cytotoxicity, MCF7; assay type: cell-based, human; conditions: MCF7 (Breast), 72 h
Experimental: as §1, §2

KM12 = experiment: NCI-60 cytotoxicity, KM12; assay type: cell-based, human; conditions: KM12 (Colon), 72 h
Experimental: as §1, §2

EKVX = experiment: NCI-60 cytotoxicity, EKVX; assay type: cell-based, human; conditions: EKVX (Lung), 72 h
Experimental: as §1, §2

NCI-H23 = experiment: NCI-60 cytotoxicity, NCI-H23; assay type: cell-based, human; conditions: NCI-H23 (Lung), 72 h
Experimental: as §1, §2

M14 = experiment: NCI-60 cytotoxicity, M14; assay type: cell-based, human; conditions: M14 (Melanoma), 72 h
Experimental: as §1, §2

K-562 = experiment: NCI-60 cytotoxicity, K-562; assay type: cell-based, human; conditions: K-562 (CML), 72 h
Experimental: as §1, §2

ACHN = experiment: NCI-60 cytotoxicity, ACHN; assay type: cell-based, human; conditions: ACHN (Renal), 72 h
Experimental: as §1, §2

IGR-OV1 = experiment: NCI-60 cytotoxicity, IGR-OV1; assay type: cell-based, human; conditions: IGR-OV1 (Ovarian), 72 h
Experimental: as §1, §2

OVCAR-8 = experiment: NCI-60 cytotoxicity, OVCAR-8; assay type: cell-based, human; conditions: OVCAR-8 (Ovarian), 72 h
Experimental: as §1, §2

786-0 = experiment: NCI-60 cytotoxicity, 786-0; assay type: cell-based, human; conditions: 786-0 (Renal), 72 h
Experimental: as §1, §2

MOLT-4 = experiment: NCI-60 cytotoxicity, MOLT-4; assay type: cell-based, human; conditions: MOLT-4 (ALL), 72 h
Experimental: as §1, §2

A549 = experiment: NCI-60 cytotoxicity, A549; assay type: cell-based, human; conditions: A549 (Lung), 72 h
Experimental: as §1, §2

NCI-H226 = experiment: NCI-60 cytotoxicity, NCI-H226; assay type: cell-based, human; conditions: NCI-H226 (Lung), 72 h
Experimental: Cells were exposed to compounds in a dose-dependent manner for 72 h. An MTS dye (20 uL per well) was added to each well. Cell viability was determined by tetrazolium conversion to its format an dye. Absorbance was monitored at 490 nm using an automated BMG PHERAstar plate reader (BMG Labtech). Each experiment was performed in duplicate. IC50 values were determined using CalcuSyn software (Biosoft).
as §3

Sequence of PI3K p110γ (P48736 whole entry, canonical isoform): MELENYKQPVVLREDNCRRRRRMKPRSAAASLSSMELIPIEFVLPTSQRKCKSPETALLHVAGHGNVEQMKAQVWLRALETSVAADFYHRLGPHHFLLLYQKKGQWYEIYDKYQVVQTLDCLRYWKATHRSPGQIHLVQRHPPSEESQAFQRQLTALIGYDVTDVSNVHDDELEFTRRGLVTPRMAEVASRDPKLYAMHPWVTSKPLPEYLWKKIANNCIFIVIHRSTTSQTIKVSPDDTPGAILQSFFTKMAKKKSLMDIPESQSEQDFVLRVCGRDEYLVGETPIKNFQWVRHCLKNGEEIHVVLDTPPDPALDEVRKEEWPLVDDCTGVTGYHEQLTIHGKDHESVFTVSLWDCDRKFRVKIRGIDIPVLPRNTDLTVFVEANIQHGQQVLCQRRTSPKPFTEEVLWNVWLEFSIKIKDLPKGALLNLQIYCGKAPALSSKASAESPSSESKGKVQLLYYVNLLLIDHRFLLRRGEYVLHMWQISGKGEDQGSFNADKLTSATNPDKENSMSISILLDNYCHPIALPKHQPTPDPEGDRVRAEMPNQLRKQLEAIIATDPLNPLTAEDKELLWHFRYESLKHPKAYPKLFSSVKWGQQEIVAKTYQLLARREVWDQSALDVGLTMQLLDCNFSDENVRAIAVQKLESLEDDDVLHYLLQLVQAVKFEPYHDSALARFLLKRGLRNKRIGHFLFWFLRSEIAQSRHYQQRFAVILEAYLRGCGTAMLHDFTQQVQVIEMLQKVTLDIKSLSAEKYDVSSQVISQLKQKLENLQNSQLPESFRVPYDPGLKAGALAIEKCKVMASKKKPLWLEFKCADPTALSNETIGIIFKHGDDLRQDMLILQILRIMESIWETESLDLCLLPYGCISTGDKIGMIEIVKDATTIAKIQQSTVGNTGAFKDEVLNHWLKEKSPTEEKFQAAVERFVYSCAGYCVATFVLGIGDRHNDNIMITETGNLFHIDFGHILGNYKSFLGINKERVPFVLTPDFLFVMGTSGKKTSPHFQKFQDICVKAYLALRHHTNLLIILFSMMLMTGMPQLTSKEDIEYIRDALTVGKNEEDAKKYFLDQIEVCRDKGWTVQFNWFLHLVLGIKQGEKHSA

SMILES: Cc1ccc([N+](=O)[O-])cc1S(=O)(=O)N(C)/N=C/c1cnc2ccc(Br)cn12 [Compound 1]
- pIC50 (SN12C; Homo sapiens): 6.33
- pIC50 (MDA-MB-468; Homo sapiens): 6.99
- pIC50 (HCT-116; Homo sapiens): 9.00
- pIC50 (PI3K p110γ): 7.12
- pIC50 (A498; Homo sapiens): 7.57
- pIC50 (NCI-H460; Homo sapiens): 8.00
- pIC50 (SK-MEL-5; Homo sapiens): < 5.00
- pIC50 (NCI/ADR-RES; Homo sapiens): 7.62
- pIC50 (NCI-H552; Homo sapiens): < 5.00
- cell viability (Hut78 cells; Hut78, 100 nM): significantly reduced viability
- effect on viability of Hut78 cells (Hut78 cells; varying concentrations, 72 hr): dose-dependent inhibition of cell viability
- pIC50 (SK-MEL-28; Homo sapiens): 5.77
- pIC50 (SNB-75; Homo sapiens): 6.36
- pIC50 (BT-S49; Homo sapiens): > 9.00
- pIC50 (T-47D; Homo sapiens, T47D): < 5.00
- pIC50 (SF-539; Homo sapiens): 6.75
- pIC50 (OVCAR-5; Homo sapiens): 7.40
- pIC50 (MCF7; Homo sapiens): 6.62
- pIC50 (KM12; Homo sapiens): 8.22
- pIC50 (EKVX; Homo sapiens): 5.91
- pIC50 (NCI-H23; Homo sapiens): < 5.00
- pIC50 (M14; Homo sapiens): 6.71
- pIC50 (K-562; Homo sapiens, K562): 6.38
- pIC50 (ACHN; Homo sapiens): 7.04
- pIC50 (IGR-OV1; Homo sapiens, IGROV-1): 6.60
- pIC50 (OVCAR-8; Homo sapiens): 7.23
- pIC50 (786-0; Homo sapiens): 8.10
- pIC50 (MOLT-4; Homo sapiens): 6.28
- pIC50 (A549; Homo sapiens): 5.58

SMILES: O=C1NCCc2[nH]c(-c3ccncc3)cc21 [Compound A11]
- pIC50 (MDA-MB-468): 5.75
- pIC50 (HCT-116): 5.90
- pIC50 (A498): < 5.00
- pIC50 (SK-MEL-5): < 5.00
- pIC50 (NCI/ADR-RES): 5.84
- pIC50 (NCI-H552): < 5.00
- pIC50 (NCI-H226): < 5.00
- pIC50 (SK-MEL-28): 5.02
- pIC50 (SNB-75): 5.21
- pIC50 (BT-S49): 6.15
- pIC50 (T-47D): < 5.00
- pIC50 (SF-539): 5.43
- pIC50 (OVCAR-5): 5.27
- pIC50 (MCF7): 5.42
- pIC50 (KM12): 5.64
- pIC50 (EKVX): < 5.00
- pIC50 (NCI-H23): < 5.00
- pIC50 (M14): 5.48
- pIC50 (K-562): < 5.00
- pIC50 (ACHN): < 5.00
- pIC50 (IGR-OV1): < 5.00
- pIC50 (OVCAR-8): 5.44
- pIC50 (786-0): 5.03
- pIC50 (MOLT-4): 5.16
- pIC50 (A549): < 5.00

SMILES: O=C1NC(=NCc2cccs2)S/C1=C\c1ccc2ncccc2c1 [Compound A10]
- pIC50 (SN12C): < 5.00
- pIC50 (MDA-MB-468): 5.16
- pIC50 (HCT-116): 5.49
- pIC50 (A498): < 5.00
- pIC50 (NCI-H460): < 5.00
- pIC50 (SK-MEL-5): < 5.00
- pIC50 (NCI/ADR-RES): 5.44
- pIC50 (NCI-H552): < 5.00
- pIC50 (NCI-H226): < 5.00
- pIC50 (SK-MEL-28): < 5.00
- pIC50 (SNB-75): < 5.00
- pIC50 (BT-S49): 5.32
- pIC50 (T-47D): 5.21
- pIC50 (SF-539): 5.59
- pIC50 (OVCAR-5): < 5.00
- pIC50 (KM12): < 5.00
- pIC50 (EKVX): < 5.00
- pIC50 (NCI-H23): < 5.00
- pIC50 (K-562): < 5.00
- pIC50 (ACHN): 5.35
- pIC50 (IGR-OV1): < 5.00
- pIC50 (OVCAR-8): < 5.00
- pIC50 (786-0): 5.11
- pIC50 (MOLT-4): 5.28
- pIC50 (A549): < 5.00

— US20230190717A1, “P38 GAMMA INHIBITORS AND METHOD OF USE THEREOF” (City of Hope, priority 2017, published 2023)
